# Results published in patent US10239884B2, “Coelenterazine compounds and uses thereof” (KEIO UNIVERSITY, priority 2017, dated 2019).
# Assays:
# Type in all cases: biochemical
# RLuc8.6-535 [1] = biological target: T1, RLuc8.6-535 (Renilla reniformis, UniProt P27652, A123S/A143M/A55T/C124A/D154M/D162E/E155G/I163L/K136R/M185L/M253L/S130A/S287L); design: expressed in transfected cells; host or cells: COST cells (so in the source); conditions: bioluminescence spectrum, ATTO LumiFL
# Method: (§1) As in the method for measuring bioluminescence intensity described above, luminescence spectrum was measured according to the protocol of Renilla Luciferase Assay System (Cat. No. E 2810; Promega). The luminescence spectrum was measured using ATTO LumiFL. The maximum luminescence intensities were normalized to be relative values to 1.0 upon determination of the maximum luminescence wavelength.
# RLuc8 [2] = biological target: T2, RLuc8 (Renilla reniformis, UniProt P27652, A143M/A55T/C124A/K136R/M185V/M253L/S130A/S287L); conditions: bioluminescence spectrum, ATTO LumiFL
# T2 construct: expressed in transfected cells; host or cells: COST cells (so in the source)
# Method: as §1
# RLuc8 [3] = biological target: T2, RLuc8; conditions: 2 μM substrate in PBS pH 7.4, cell lysate, maximum intensity over 1 second, relative value
# From the text: (§2) The luciferases were respectively expressed in COST cells using an expression vector (pcDNA3.1(+), commercially available from Invitrogen) comprising the sequence encoding native Renilla Luciferase (RLuc) (trade name pGL4.75, commercially available from Promega) or an expression vector (trade name pcDNA3.1(+), commercially available from Invitrogen) comprising the sequence encoding a RLuc derivative RLuc8 or RLuc8.6-535 (Reference: Loening, A. M. et al., Nat. Methods, 2007, 4, 641-643.). The cells were lysed using a Renilla Luciferase Lysis Buffer (E291A, Promega), and the lysate was directly used as an enzyme solution. […] Bioluminescence was measured according to the protocol of Renilla Luciferase Assay System (Cat. No. E 2810; Promega). The luminescent substrate was dissolved in methanol to prepare a 2 mM solution. The solution was diluted to 2 μM with PBS buffer (pH 7.4), and the diluted solution was used as a substrate solution. To 200 μL of the substrate solution, 4 μL of the cell lysate containing RLuc, RLuc 8 or RLuc8.6-535 was added to start the luminescent reaction. The luminescence intensity was measured with a Berthold Lumat LB 9507 for 1 second, and indicated by the maximum luminescence intensity (I). The luminescence intensity of the native CTZ by RLuc8 was set to be 1.0, and the other bioluminescence intensities were normalized to be relative values to that of native CTZ.
# RLuc8.6-535 [4] = biological target: T1, RLuc8.6-535; design: expressed in transfected cells; host or cells: COST cells (so in the source); conditions: 2 μM substrate in PBS pH 7.4, cell lysate, maximum intensity over 1 second, relative value
# From the text: as §2
# T1 sequence (P27652 whole entry A55T/A123S/C124A/S130A/K136R/A143M/D154M/E155G/D162E/I163L/M185L/M253L/S287L): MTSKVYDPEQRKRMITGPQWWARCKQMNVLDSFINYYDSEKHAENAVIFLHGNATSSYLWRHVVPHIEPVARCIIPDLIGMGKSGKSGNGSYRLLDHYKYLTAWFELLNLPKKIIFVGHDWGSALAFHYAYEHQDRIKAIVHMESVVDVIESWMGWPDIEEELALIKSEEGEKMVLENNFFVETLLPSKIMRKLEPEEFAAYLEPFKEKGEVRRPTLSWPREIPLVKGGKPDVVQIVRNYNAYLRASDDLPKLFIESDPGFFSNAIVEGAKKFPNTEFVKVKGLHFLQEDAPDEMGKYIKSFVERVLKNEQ
# T2 sequence (P27652 whole entry A55T/C124A/S130A/K136R/A143M/M185V/M253L/S287L): as the sequence (P27652 whole entry A55T/A123S/C124A/S130A/K136R/A143M/D154M/E155G/D162E/I163L/M185L/M253L/S287L) above, with S123A, M154D, G155E, E162D, L163I, L185V counted along it
Structure (SMILES),RLuc8.6-535 half-width (nm) (RLuc8.6-535 [1]),RLuc8.6-535 maximum luminescence wavelength (nm) (RLuc8.6-535 [1]),RLuc8 half-width (nm) (RLuc8 [2]),RLuc8 maximum luminescence wavelength (nm) (RLuc8 [2]),RLuc8 luminescence intensity (%) (RLuc8 [3]),RLuc8.6-535 luminescence intensity (%) (RLuc8.6-535 [4])
O=c1c(Cc2ccccc2)nc2c(Cc3ccccc3)[nH]c(-c3ccc(OCCO)cc3)cn1-2 [6-Alkyl2OH-2H-CTZ],[68] nm,407,[65] nm,413 nm,6.21,6.24
O=c1c(Cc2ccc(O)cc2)nc2c(Cc3ccccc3)[nH]c(-c3ccc(OCCO)cc3)cn1-2 [6-Alkyl2OH-CTZ],[56] nm,411,[59] nm,411 nm,15.0,43.2
CCCCOc1ccc(-c2cn3c(=O)c(Cc4ccccc4)nc-3c(Cc3ccccc3)[nH]2)cc1 [6-Alkyl3-2H-CTZ],[53] nm,413,[50] nm,411 nm,2.00,28.4
O=c1c(Cc2ccccc2)nc2c(Cc3ccccc3)[nH]c(-c3ccc(OCCCO)cc3)cn1-2 [6-Alkyl3OH-2H-CTZ],[56] nm,413,[65] nm,411 nm,5.03,23.9
COCCCOc1ccc(-c2cn3c(=O)c(Cc4ccccc4)nc-3c(Cc3ccccc3)[nH]2)cc1 [6-Alkyl3OMe-2H-CTZ],[53] nm,413,[49] nm,416 nm,2.93,29.3
O=c1c(Cc2ccccc2)nc2c(Cc3ccccc3)[nH]c(-c3ccc(OCCCCO)cc3)cn1-2 [6-Alkyl4OH-2H-CTZ],[68] nm,405,[69] nm,404 nm,3.45,23.9
O=c1c(Cc2ccc(O)cc2)nc2c(Cc3ccccc3)[nH]c(-c3ccc(OCCCCO)cc3)cn1-2 [6-Alkyl4OH-CTZ],[60] nm,412,[69] nm,404 nm,11.8,59.8
O=c1c(Cc2ccccc2)nc2c(Cc3ccccc3)[nH]c(-c3ccc(OCCCCCO)cc3)cn1-2 [6-Alkyl5OH-2H-CTZ],[68] nm,406,[70] nm,403 nm,2.88,18.0
"COCc1ccc(-c2cn3c(=O)c(Cc4ccccc4)nc-3c(Cc3ccccc3)[nH]2)cc1 [6-Ether-2H-CTZ, reference compound]",[53] nm,406,–,(393) nm,0.36,2.17
CCc1ccc(-c2cn3c(=O)c(Cc4ccccc4)nc-3c(Cc3ccccc3)[nH]2)cc1 [6-Ethyl-2H-CTZ],[50] nm,411,–,(402) nm,0.62,18.0
Cc1ccc(-c2cn3c(=O)c(Cc4ccccc4)nc-3c(Cc3ccccc3)[nH]2)cc1 [6-Methyl-2H-CTZ],[49] nm,411,[45] nm,408 nm,1.44,25.3
CCCCOc1ccc(-c2cn3c(=O)c(Cc4ccc(O)cc4)nc-3c(Cc3ccccc3)[nH]2)cc1 [Example 6-Alkyl3-CTZ],[60] nm,412,[46] nm,(413) nm,8.07,39.6
"COCc1ccc(-c2cn3c(=O)c(Cc4ccc(O)cc4)nc-3c(Cc3ccccc3)[nH]2)cc1 [Example 6-Ether-CTZ, reference compound]",[49] nm,411,–,(420) nm,0.85,8.94
CCc1ccc(-c2cn3c(=O)c(Cc4ccc(O)cc4)nc-3c(Cc3ccccc3)[nH]2)cc1 [Example 6-Ethyl-CTZ],[60] nm,406,–,(410) nm,2.68,29.4
